Measurements reported in patent US20090192312A1, “Brain Function-Improving Agent, and Functional Food Containing the Improving Agent” (MITSUBISHI GAS CHEMICAL COMPANY, INC., priority 2006, published 2009).

System: Male Wistar rats
Experiment: Morris water maze test of learning and memory abilities
Type: in vivo
Conditions: feed containing 0.02% PQQ·2Na, 21 days of breeding; one trial daily for 20 days; versus PQQ·2Na-free treatment groups; 9 animals per group
From the text: Male Wistar rats (9 weeks old) were bred using a feed containing 0.02% pyrroloquinoline quinone disodium salt (PQQ·2Na) or 0.3% coenzyme Q10 (CoQ10) alone or both in combination or a feed free from these compounds. From the age of 12 week old after 21 days of breeding, 9 animals per group were subjected to a test of learning and memory abilities using a Morris water maze. Specifically, the bottom of a circular pool (150 cm in diameter, 45 cm in depth) was divided into four quadrants with white lines. A circular platform was placed at the center of one of the quadrants so that it was hidden under the water. Each rat was allowed to swim from different positions of the other three quadrants having no platform, and the time until it reached the platform was measured. This test was tried once daily for a total of 20 days. The learning rate was calculated by the following equation: Learning rate (%)=100−(mean time until rat reaches the platform at the Xth trial/mean time until rat reaches the platform at the first trial)×100

O=C(O)c1cc(C(=O)O)c2c(n1)C(=O)C(=O)c1cc(C(=O)O)[nH]c1-2.[Na].[Na] [PQQ·2Na, pyrroloquinoline quinone disodium salt]
increasing rate of the learning rate: statistically significantly higher
